According to patent US11512080B2, “CRBN ligands and uses thereof” (Kymera Therapeutics, Inc., priority 2018, dated 2022):
Like-named read-outs stand apart in the source and are kept apart here.

Molecular target: His-tagged CRBN-DDB1 complex (Homo sapiens (Human), UniProt Q96SW2)
Assay: Time-Resolved Fluorescence Resonance Energy Transfer (TR-FRET) assay
Format: binding
Details: read-out: CRBN HTRF IC50
Experimental: The mixture were incubated at room temperature for 1 hour. […] Quantitative loss of FRET efficiency as a function of compound concentrations was fitted by a four-parameter Logistic Function using GraphPad Prism 7.0 and the IC50 values were reported for each compound.
The compound numbers correspond to the compound numbers in Table 1.

[1] = competition with Cy5-labeled thalidomide (8 nM), 1 hour at room temperature

Sequence of His-tagged CRBN-DDB1 complex (Q96SW2 whole entry): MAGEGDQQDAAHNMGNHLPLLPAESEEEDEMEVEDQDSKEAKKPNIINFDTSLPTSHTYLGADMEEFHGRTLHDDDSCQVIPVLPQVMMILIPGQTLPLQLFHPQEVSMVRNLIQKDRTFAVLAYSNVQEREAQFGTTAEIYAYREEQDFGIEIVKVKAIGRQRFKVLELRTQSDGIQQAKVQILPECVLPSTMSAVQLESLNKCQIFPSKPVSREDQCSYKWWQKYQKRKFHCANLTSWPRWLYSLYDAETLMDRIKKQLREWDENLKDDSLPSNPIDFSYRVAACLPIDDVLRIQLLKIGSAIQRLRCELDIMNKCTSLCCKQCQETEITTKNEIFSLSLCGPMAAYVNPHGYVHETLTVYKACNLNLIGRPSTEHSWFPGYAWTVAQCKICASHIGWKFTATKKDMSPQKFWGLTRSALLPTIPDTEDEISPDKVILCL
Sequence of His-tagged CRBN-DDB1 complex (Q16531 whole entry partner): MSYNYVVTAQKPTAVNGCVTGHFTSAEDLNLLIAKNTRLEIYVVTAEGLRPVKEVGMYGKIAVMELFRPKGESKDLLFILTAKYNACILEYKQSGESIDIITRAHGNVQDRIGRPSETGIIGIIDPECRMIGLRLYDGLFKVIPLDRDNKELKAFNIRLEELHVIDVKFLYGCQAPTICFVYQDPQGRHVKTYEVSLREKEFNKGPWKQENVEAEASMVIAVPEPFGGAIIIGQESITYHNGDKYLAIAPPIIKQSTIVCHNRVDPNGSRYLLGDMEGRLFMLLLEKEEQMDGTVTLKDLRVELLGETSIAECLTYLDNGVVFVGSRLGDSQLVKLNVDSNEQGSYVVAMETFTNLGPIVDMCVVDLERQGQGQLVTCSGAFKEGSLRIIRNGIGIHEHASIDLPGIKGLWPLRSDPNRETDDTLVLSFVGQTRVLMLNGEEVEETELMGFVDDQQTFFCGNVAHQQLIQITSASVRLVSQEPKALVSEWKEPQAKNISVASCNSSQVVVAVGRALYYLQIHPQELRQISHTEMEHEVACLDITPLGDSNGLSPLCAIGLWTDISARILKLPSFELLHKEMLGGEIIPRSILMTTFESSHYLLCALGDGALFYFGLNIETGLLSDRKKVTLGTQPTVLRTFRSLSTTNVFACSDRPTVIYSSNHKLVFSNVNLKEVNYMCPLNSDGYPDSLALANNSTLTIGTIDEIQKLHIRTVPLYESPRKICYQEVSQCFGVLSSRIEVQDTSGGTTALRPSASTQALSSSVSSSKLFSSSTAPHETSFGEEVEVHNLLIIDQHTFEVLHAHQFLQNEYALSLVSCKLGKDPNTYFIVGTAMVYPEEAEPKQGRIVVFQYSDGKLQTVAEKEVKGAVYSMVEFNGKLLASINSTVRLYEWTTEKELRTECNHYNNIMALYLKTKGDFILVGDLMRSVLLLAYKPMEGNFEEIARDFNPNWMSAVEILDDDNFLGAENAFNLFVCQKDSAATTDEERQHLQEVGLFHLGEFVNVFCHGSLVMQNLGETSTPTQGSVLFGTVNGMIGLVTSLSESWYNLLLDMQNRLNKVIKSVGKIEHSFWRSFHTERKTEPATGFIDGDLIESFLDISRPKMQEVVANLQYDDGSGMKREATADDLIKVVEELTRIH

IC50 [1] [µM]	IC50 [µM]	SMILES
> 100		CN1Cc2ccccc2C(N2CCC(=O)NC2=O)C1=O (stereo not shown) [Compound I-145, 1-(2-Methyl-3-oxo-1,2,3,4-tetrahydroisoquinolin-4-yl)dihydropyrimidine-2,4(1H,3H)-dione]
	10 to 100	O=C1CCC(Sc2nc(=O)cc(-c3ccccc3)[nH]2)C(=O)N1 (stereo not shown) [Compound I-93]
	10 to 100	CN(C)C(=O)c1cccnc1SC1CCC(=O)NC1=O (stereo not shown) [Compound I-141]
> 100		O=C1NC(=O)C(N2CCN(c3ccccc3)CC2=O)S1 (stereo not shown) [Compound I-82, 5-(2-Oxo-4-phenylpiperazin-1-yl)thiazolidine-2,4-dione]
	10 to 100	O=C1CCC(Sc2cccs2)C(=O)N1 (stereo not shown) [Compound I-72]
	10 to 100	O=C1CCC(Sc2ccc(Cl)cc2)C(=O)N1 (stereo not shown) [Compound I-15, 3-((4-chlorophenyl)thio)piperidine-2,6-dione]
	10 to 100	Cn1c(=O)c(C2SC(=O)NC2=O)cc2ccccc21 (stereo not shown) [Compound I-118, 5-(1-methyl-2-oxo-1,2-dihydroquinolin-3-yl)thiazolidine-2,4-dione]
	1 to 10	O=C1CCC(Sc2ccc(Br)cn2)C(=O)N1 (stereo not shown) [Compound I-104]
	10 to 100	Cc1c(SC2CCC(=O)NC2=O)cccc1C(=O)O (stereo not shown) [Compound I-137, 3-((2,6-Dioxopiperidin-3-yl)thio)-2-methylbenzoic acid]
	1 to 10	Cc1coc(-c2ccnc(SC3CCC(=O)NC3=O)c2)n1 (stereo not shown) [Compound I-138, 3-((4-(4-Methyloxazol-2-yl)pyridin-2-yl)thio)piperidine-2,6-dione]
	10 to 100	COc1ccc(SC2CCC(=O)NC2=O)cc1 (stereo not shown) [Compound I-9, 3-((4-methoxyphenyl)thio)piperidine-2,6-dione]
	1 to 10	O=C1CCC(Sc2cccc[n+]2[O-])C(=O)N1 (stereo not shown) [Compound I-110]
	1 to 10	O=C1CCC(Sc2ccc(Cl)cn2)C(=O)N1 (stereo not shown) [Compound I-90]
	10 to 100	Cc1occc1SC1CCC(=O)NC1=O (stereo not shown) [Compound I-80]
	10 to 100	O=C1NC(=O)C(N2CC(c3ccccc3)OC2=O)S1 (stereo not shown) [Compound I-38]
	1 to 10	O=C1CCC(Sc2ccccc2OC(F)(F)F)C(=O)N1 (stereo not shown) [Compound I-99]
	1 to 10	CCOc1cccc(SC2CCC(=O)NC2=O)c1 (stereo not shown) [Compound I-86]
	10 to 100	CC(=O)Nc1ccc(SC2CCC(=O)NC2=O)cc1 (stereo not shown) [Compound I-13, N-[4-(2,6-Dioxo-piperidin-3-ylsulfanyl)-phenyl]-acetamide]
> 100		O=C1CN(C2SC(=O)NC2=O)CCN1 (stereo not shown) [Compound I-77, 5-(3-Oxopiperazin-1-yl)thiazolidine-2,4-dione]
	1 to 10	CCc1cccc(SC2CCC(=O)NC2=O)c1 (stereo not shown) [Compound I-121, 3-((3-ethylphenyl)thio)piperidine-2,6-dione]
	10 to 100	O=C1CCN(Cc2ccccc2)C(=O)N1 [Compound I-24, 1-Benzyl-dihydro-pyrimidine-2,4-dione]
	10 to 100	N#Cc1ccccc1SC1CCC(=O)NC1=O (stereo not shown) [Compound I-117]
